Laboratory results published in publication PMC8115122, “Development of Fluorescent and Biotin Probes Targeting NLRP3” (Frontiers in Chemistry, 2021).

Experiments:
AIM2 inflammasome = test: IL-1β release (HTRF) after LPS priming and poly(dA:dT) transfection, AIM2 inflammasome; conditions: poly(dA:dT)
[1] = test system: AIM2-dependent cell death; test: LDH release (pyroptosis) after LPS and poly(dA:dT), AIM2-dependent; assay type: cell-based, murine; conditions: LPS + poly(dA:dT)
Method: […]. All data are means ± SEM (n = 3), Student's t-test. *P ≤ 0.05, **P ≤ 0.01, ***P ≤ 0.001.
To assess pyroptosis, cytosolic lactate dehydrogenase (LDH) release was measured as a marker of cell lysis. […] […]. All assays were performed according to the manufacturer's instructions. A two-tailed unpaired t-test was performed using GraphPad Prism 9.

[2] = test system: immortalized murine bone marrow-derived macrophages; test: CellTiter-Blue cell viability assay; assay type: cell-based; conditions: 4 h in Opti-MEM, tested 625 nM to 40 μM
Method: Next, the probes were examined in cell culture experiments. First, we determined the cytotoxicity of probes 1–4 at different concentrations between 625 nM and 40 μM in immortalized murine bone marrow-derived macrophages (Figure 4).
Figure 4 Cell viability of immortalized murine bone marrow-derived macrophages after treatment with probes 1–4. Cells were treated with the probes at different concentrations in Opti-MEM for 4 h. Cell viability was assessed using the CellTiter-Blue cell viability assay.
NLRP3 KO immortalized murine bone marrow-derived macrophages overexpressing mouse NLRP3-FLAG and human ASC-mCerulean were seeded in 96 well plates and incubated overnight. Cells were treated with the fluorescent probes (1 and 2) and the biotin-tagged probes (3 and 4) at different concentrations in Opti-MEM for 4 h. Subsequently, cell viability was assessed using CellTiter-Blue® cell viability assay according to the manufacturer's instructions.

NLRP3 inflammasome = test: IL-1β release (HTRF) after LPS priming and nigericin, NLRP3 inflammasome; assay type: cell-based, murine; conditions: for effect on cytokine (IL-1β) release: 20 μM
Method: The following experiments were performed with probes 1–4 in immortalized murine bone marrow-derived macrophages. Nigericin, an antibiotic carboxylate ionophore, was used as the activator of the NLRP3 inflammasome, owing to its ability to induce a potassium efflux. […] For this purpose, AIM2 was stimulated by transfection with poly(deoxyadenylic-deoxythymidylic) acid [poly(dA:dT)] after pretreatment with LPS. A Homogeneous Time Resolved Fluorescence (HTRF) assay was employed to determine the release of IL-1β (Figure 5).
All data are means ± SEM (n = 3), Student's t-test. *P ≤ 0.05, **P ≤ 0.01, ***P ≤ 0.001.
NLRP3 KO Immortalized murine bone marrow-derived macrophages overexpressing mouse NLRP3-Flag and human ASC-mCerulean were seeded in 96-well plates and incubated for 16 h. Cells were treated with 400 ng/mL ultrapure LPS for 3 h. […] Subsequently, to induce NLRP3 inflammasome activation, cells were treated with 10 μM nigericin for 1.5 h. As controls, to activate the AIM2 inflammasome, cells were transfected with 200 ng of poly(dA:dT) using 0.5 μL lipofectamine 2,000 per well for 4 h. Supernatants were collected to measure cytosolic LDH release by an LDH assay and IL-1ß release by Homogeneous Time Resolved Fluorescence (HTRF). All assays were performed according to the manufacturer's instructions. A two-tailed unpaired t-test was performed using GraphPad Prism 9.

[3] = target: human NLRP3-PYD-NACHT domain protein (Homo sapiens, UniProt Q96P20); test: SPR single-cycle kinetic binding to immobilized biotinylated NLRP3-PYD-NACHT; conditions: for kd, first-order off-rate constant for dissociation: SPR, 25 °C, 1:1 binding model; for kon: read-out: ka, second-order on-rate constant for association
Chain of human NLRP3-PYD-NACHT domain protein (Q96P20 1-649 limits assumed): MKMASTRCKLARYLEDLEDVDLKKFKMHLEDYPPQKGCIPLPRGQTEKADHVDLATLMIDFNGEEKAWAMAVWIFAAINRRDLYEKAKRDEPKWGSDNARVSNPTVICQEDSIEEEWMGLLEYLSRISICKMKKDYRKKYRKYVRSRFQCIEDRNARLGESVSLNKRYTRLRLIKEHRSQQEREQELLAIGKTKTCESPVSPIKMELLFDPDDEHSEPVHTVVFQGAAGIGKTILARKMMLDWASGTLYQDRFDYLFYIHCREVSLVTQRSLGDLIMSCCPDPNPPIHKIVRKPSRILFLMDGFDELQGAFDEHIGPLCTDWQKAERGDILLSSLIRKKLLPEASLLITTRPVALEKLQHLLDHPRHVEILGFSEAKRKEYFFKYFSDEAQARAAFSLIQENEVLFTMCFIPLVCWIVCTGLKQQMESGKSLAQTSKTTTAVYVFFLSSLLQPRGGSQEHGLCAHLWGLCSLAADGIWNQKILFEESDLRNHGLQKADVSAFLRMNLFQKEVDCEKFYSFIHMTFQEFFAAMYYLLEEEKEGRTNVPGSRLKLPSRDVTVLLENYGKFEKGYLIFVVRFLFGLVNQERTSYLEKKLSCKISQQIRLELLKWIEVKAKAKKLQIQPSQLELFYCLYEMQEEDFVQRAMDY

[4] = test system: NLRP3-dependent cell death; test: LDH release (pyroptosis) after LPS and nigericin, NLRP3-dependent; assay type: cell-based, murine; conditions: LPS + nigericin
human NLRP3-PYD-NACHT = human NLRP3-PYD-NACHT (Homo sapiens, UniProt Q96P20); test: SPR competition mode (second ligand injected 120 s after the first); conditions: competition with CRID3/MCC950, equimolar, 10-times the kinetic KD of the test compound, either order of injection
Chain of human NLRP3-PYD-NACHT (Q96P20 1-649 limits assumed): as above

[5] = concentrations of Figure 5 (not given)

Row | SMILES | AIM2-dependent IL-1β release (AIM2 inflammasome; [5]) | AIM2-dependent cell death (LDH release) ([1]; 2.5 μM) | non-toxic up to concentration [2] | inhibition of IL-1β release (NLRP3 inflammasome; 10 μM) | Kd [3] [nM] | kd, first-order off-rate constant for dissociation [3] [s⁻¹] | kon [3] [M⁻¹ s⁻¹] | AIM2-dependent cell death (LDH release) ([1]; 10 μM) | NLRP3-dependent cell death (LDH release) ([4]; 10 μM) | some cytotoxicity at concentrations higher than [2] | inhibition of IL-1β release (NLRP3 inflammasome; 2.5 μM) | response change indicative of a second binding site (human NLRP3-PYD-NACHT) | AIM2-dependent IL-1β release (AIM2 inflammasome; 2.5 μM) | AIM2-dependent IL-1β release (AIM2 inflammasome; 20 μM, data not shown, attributed to cytotoxicity) | NLRP3-dependent cell death (LDH release) ([4]; 2.5 μM) | effect on cytokine (IL-1β) release (NLRP3 inflammasome) | melting point [°C]
1 | CC(C)(O)c1coc(S(=O)(=O)NC(=O)Nc2c3c(cc4c2CCC4)CCC3)c1 [CRID3/MCC950, reference compound] | did not affect this process | but not the AIM2-dependent cell death |  |  |  |  |  |  |  |  |  |  |  |  |  |  | 
2 | O=C(COCCOCCNC(=O)c1cc2cc3c4c(c2oc1=O)CCCN4CCC3)NCc1ccc(S(=O)(=O)NC(=O)Nc2c3c(cc4c2CCC4)CCC3)cc1 [Compound 1, N-(2-(2-(2-([4-(N-([1,2,3,5,6,7-Hexahydro-s-indacen-4-yl]carbamoyl)sulfamoyl)benzyl]amino)-2-oxoethoxy)ethoxy)ethyl)-11-oxo-2,3,6,7-tetrahydro-1H,5H,11H-pyrano[2,3-f]pyrido[3,2,1-ij]quinoline-10-carboxamide] | did not affect this process |  | up to 10 μM | complete inhibition | 813 | 0.01 | 13000 | but not the AIM2-dependent cell death | prevented |  |  |  |  |  |  |  | 
3 | O=C(Nc1c2c(cc3c1CCC3)CCC2)NS(=O)(=O)c1ccc(CNC(=O)c2cc3cc4c5c(c3oc2=O)CCCN5CCC4)cc1 [Compound 2] |  | but not the AIM2-dependent cell death |  |  | 322 | 0.0033 | 10000 |  |  | higher than 2.5 μM | complete inhibition | No significant response change | only a slightly reduced AIM2-dependent release of IL-1β | reduced AIM2-dependent IL-1β release | prevented |  | 
4 | O=C(CCCC[C@H]1SC[C@H]2NC(=O)N[C@H]21)NCCOCCOCC(=O)NCc1ccc(S(=O)(=O)NC(=O)Nc2c3c(cc4c2CCC4)CCC3)cc1 [Compound 3, N-(2-(2-(2-([4-(N-([1,2,3,5,6,7-Hexahydro-s-indacen-4-yl]carbamoyl)sulfamoyl)benzyl]amino)-2-oxoethoxy)ethoxy)ethyl)-5-([3aR,4R,6aS]-2-oxohexahydro-1H-thieno[3,4-d]imidazol-4-yl)pentanamide] |  |  | up to 40 μM |  | 1030 | 0.022 | 22000 |  |  |  |  |  |  |  |  | did not significantly affect the cytokine release | 140 to 142
5 | O=C(CCCCC1SCC2NC(=O)NC21)NCc1ccc(S(=O)(=O)NC(=O)Nc2c3c(cc4c2CCC4)CCC3)cc1 (centres unmarked) [Compound 4] |  |  | up to 40 μM |  | 611 | 0.0088 | 14000 |  |  |  |  | No significant response change |  |  |  | did not significantly affect the cytokine release | 
